Assay results as given in US8975228B2, “Use of boswellic acids for the prophylaxis and/or treatment of damage to and/or inflammation of the islets of Langerhans” (Fraunhofer-Gesellschaft zur Forderung der Angewandten …, priority 2010, dated 2015).

Legend:
islets of Langerhans = assay: Histology of pancreas in MLD-STZ diabetic mice (H&E, anti-CD3, anti-activated caspase 3); assay type: in vivo, mouse; conditions: STZ 40 mg/kg i.p. 5 days; 10 days i.p. BE 150 mg/kg, AKBA 15 mg/kg or KBA 7.5 mg/kg; examined day 10
Source text: (§1) The use of “multiple low dose streptozotocin” (MOL-STZ diabetes) is an acknowledged animal model for inducing diabetes that occurs frequently in association with insulitis, which corresponds to IDDM in humans. In the pathogenesis, macrophages and T-lymphocytes infiltrate the islets of Langerhans and the B-cells are destroyed. MLD-STZ induced diabetes is very well suited for investigating the anti-diabetic and/or anti-inflammatory effect of drugs on the pancreatic islets. For inducing MLD-STZ diabetes, a mouse is dosed with 40 mg/kg STZ per day intraperitoneally (i.p.) over 5 days. During this time there is no B-cell destruction. Only after 10 to 15 days after the first injection of STZ do signs of inflammation of the islets of Langerhans appear, when T-lymphocytes infiltrate and the B-cells are being destroyed. After about 16 days, the symptoms of the inflammation have disappeared again. Most B-cells have died. As a consequence, insulin secretion is reduced or no longer existent (cf. McEvoy et al. 1984, “Multiple low-dose streptozotocin-induced diabetes in the mouse”, Evidence for stimulation of a cytotoxic cellular immune response against an insulin-producing beta cell line, J Clin Invest, 74:715-22). This animal model of experimental induction of diabetes mellitus essentially corresponds with the pathogenesis of type 1 diabetes in young humans.
In order to investigate the effect of an extract containing boswellic acids on the damage and/or inflammation of the islets of Langerhans, a group of mice was dosed with streptozotocin alone and another group of mice was dosed with streptozotocin plus boswellic acid extract (a mixture of boswellic acids with an overall concentration of all boswellic acids of 62%) The aforesaid extract contained 5.51% KBA and 4.96% AKBA. From the 1st to the 10th day, C3M/HeN and Bk +/+ were administered i.p with a dose of 150 mg/kg body weight in male mice of strains bred in the laboratory. […]

TNF-α [1] = conditions: in vitro, technical literature; cited from earlier work
IFN-γ [2] = conditions: in vitro, technical literature; cited from earlier work
IL-2 [3] = conditions: in vitro, technical literature; cited from earlier work
Elastase = target: T1, Elastase (Homo sapiens, UniProt P08246); conditions: in vitro, technical literature; cited from earlier work
T1 sequence (P08246 30-267): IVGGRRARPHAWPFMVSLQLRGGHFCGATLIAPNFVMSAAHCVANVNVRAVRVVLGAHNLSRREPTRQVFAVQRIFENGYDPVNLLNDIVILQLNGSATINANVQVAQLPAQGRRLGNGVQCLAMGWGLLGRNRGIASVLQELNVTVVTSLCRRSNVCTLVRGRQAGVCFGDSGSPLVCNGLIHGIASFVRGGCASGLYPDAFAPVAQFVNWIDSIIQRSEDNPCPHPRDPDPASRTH

IL-2 [4] = assay: Serum pro-inflammatory cytokines in MLD-STZ diabetic mice; assay type: in vivo, mouse; conditions: 10 days i.p.; BE 150 mg/kg, AKBA 15.0 mg/kg, KBA 7.5 mg/kg
Description: (§2) Male mice were injected i.p. 40 mg/kg STZ for 5 days (STZ group, group A). A second group was, in addition to STZ, treated i.p. with 150 mg/kg BE for 10 days (group STZ+BE, group B). A further group (group C) remained untreated. After 10 days blood samples were taken.
(§3) In further tests, 15.0 mg/kg AKBA or 7.5 mg/kg KBA respectively were administered instead of 150 mg/kg BE.
(§4) Ten days after daily i.p. injections of 150 mg/kg of boswellia extract, of 15.0 mg/kg AKBA or 7.5 mg/kg KBA in MLD-STZ animals (40 mg/kg i.p. for 5 days) the presence of cytokines was determined using the commercially available Multianalyte Array TM Kits (mouse-inflammatory cytokines, SA Bioscience Corporation, USA) according to the instructions on usage provided by the manufacturer. The cytokines IL-1A, IL-1B, IL-2, IFN-γ, IL-6 and TNF-α were ascertained.

IFN-γ [5] = assay: as above; assay type: in vivo, mouse; conditions: 10 days i.p.; BE 150 mg/kg, AKBA 15.0 mg/kg, KBA 7.5 mg/kg
Description: as §2, §3, §4

TNF-α [6] = assay: as above; assay type: in vivo, mouse; conditions: 10 days i.p.; BE 150 mg/kg, AKBA 15.0 mg/kg, KBA 7.5 mg/kg
Description: as §2, §3, §4

IL-1B = assay: as above; assay type: in vivo, mouse; conditions: 10 days i.p.; BE 150 mg/kg, AKBA 15.0 mg/kg, KBA 7.5 mg/kg
Description: as §2, §3, §4

IL-1A = assay: as above; assay type: in vivo, mouse; conditions: 10 days i.p.; BE 150 mg/kg, AKBA 15.0 mg/kg, KBA 7.5 mg/kg
Description: as §2, §3, §4

IL-6 = assay: as above; assay type: in vivo, mouse; conditions: 10 days i.p.; BE 150 mg/kg, AKBA 15.0 mg/kg, KBA 7.5 mg/kg
Description: as §2, §3, §4

[7] = Blood glucose level in MLD-STZ diabetic mice; assay type: in vivo, mouse; conditions: for STZ-induced increase of the blood glucose level: single substance i.p. daily 10 days, AKBA 15 mg/kg, KBA 7.5 mg/kg
Source text: as §1
For inducing MLD-STZ diabetes, the animals were injected i.p. 40 mg/kg STZ a day for a period of five days. In group A the animals were additionally treated with 150 mg/kg BE i.p. for 5 days (FIG. 5A), in group B for 10 days (FIG. 5B) and in group C for 21 days (FIG. 5C).
The animals were treated for 5 days with STZ as described above. AKBA in solution in Tween 80 was injected i.p. daily for 10 days.

[8] = target: Cyclooxygenase 1 (prostaglandin) (Homo sapiens, UniProt P23219); conditions: in vitro, technical literature; cited from earlier work
Sequence of Cyclooxygenase 1 (prostaglandin) (P23219 24-599): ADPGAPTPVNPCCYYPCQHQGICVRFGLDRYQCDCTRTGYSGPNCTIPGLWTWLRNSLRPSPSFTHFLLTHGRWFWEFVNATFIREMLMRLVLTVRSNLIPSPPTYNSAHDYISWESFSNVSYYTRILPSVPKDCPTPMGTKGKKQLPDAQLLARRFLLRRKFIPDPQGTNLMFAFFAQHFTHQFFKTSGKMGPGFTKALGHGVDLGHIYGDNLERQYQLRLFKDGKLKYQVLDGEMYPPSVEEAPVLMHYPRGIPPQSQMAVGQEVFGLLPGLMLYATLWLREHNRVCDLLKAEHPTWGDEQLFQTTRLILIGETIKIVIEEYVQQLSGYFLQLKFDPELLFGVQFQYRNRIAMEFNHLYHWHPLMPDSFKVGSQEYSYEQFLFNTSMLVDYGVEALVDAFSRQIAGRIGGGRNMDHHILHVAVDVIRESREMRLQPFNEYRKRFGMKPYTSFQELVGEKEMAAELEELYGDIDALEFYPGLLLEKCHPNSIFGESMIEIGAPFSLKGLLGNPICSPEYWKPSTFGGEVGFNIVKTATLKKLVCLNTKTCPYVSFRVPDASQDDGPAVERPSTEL

[9] = target: T2, 5-Lipoxygenase (leukotriene) (Homo sapiens, UniProt P09917); conditions: in vitro, technical literature; cited from earlier work
T2 sequence (P09917 1-674): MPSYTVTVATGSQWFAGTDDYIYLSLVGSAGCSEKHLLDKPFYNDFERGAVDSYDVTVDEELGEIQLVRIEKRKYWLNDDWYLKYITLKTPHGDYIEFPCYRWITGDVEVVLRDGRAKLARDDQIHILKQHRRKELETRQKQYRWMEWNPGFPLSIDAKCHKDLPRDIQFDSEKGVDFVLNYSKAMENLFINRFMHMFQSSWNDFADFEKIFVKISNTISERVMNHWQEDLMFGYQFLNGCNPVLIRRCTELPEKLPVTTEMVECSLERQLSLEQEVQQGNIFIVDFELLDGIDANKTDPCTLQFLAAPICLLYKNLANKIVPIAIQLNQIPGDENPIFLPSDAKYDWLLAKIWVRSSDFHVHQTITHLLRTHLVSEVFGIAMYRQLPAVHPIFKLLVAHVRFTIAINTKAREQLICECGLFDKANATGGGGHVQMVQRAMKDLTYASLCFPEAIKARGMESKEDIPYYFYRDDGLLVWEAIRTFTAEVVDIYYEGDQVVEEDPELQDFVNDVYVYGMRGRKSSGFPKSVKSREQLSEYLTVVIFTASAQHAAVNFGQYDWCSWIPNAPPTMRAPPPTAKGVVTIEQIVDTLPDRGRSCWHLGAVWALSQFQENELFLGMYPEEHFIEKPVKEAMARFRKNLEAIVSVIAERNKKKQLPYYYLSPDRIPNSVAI

C3-Convertase = conditions: in vitro, technical literature; cited from earlier work
NFK B = conditions: in vitro, technical literature; cited from earlier work
IL-1β = conditions: in vitro, technical literature; cited from earlier work

## CC(=O)O[C@@H]1CC[C@@]2(C)[C@@H](CC[C@]3(C)[C@@H]2C(=O)C=C2[C@@H]4[C@@H](C)[C@H](C)CC[C@]4(C)CC[C@]23C)[C@@]1(C)C(=O)O [AKBA, acetyl-11-keto-β-boswellic acid]
Islets of Langerhans
  Signs of apoptosis (activated caspase 3): only minor signs of apoptosis
  Signs of inflammation of the islets of Langerhans (H&E staining, T-lymphocytes by CD3): no signs of inflammation
TNF-α [1]
  Effect on TNF-α: Lowered
IFN-γ [2]
  Effect on IFN-γ: Lowered
IL-2 [3]
  Effect on IL-2: Lowered
Elastase
  Effect on Elastase: Lowered
IL-2 [4]
  STZ-induced increase in serum IL-2: reduced or prevented
IFN-γ [5]
  STZ-induced increase in serum IFN-γ: reduced or prevented
TNF-α [6]
  STZ-induced increase in serum TNF-α: reduced or prevented
IL-1B
  STZ-induced increase in serum IL-1B: reduced or prevented
IL-1A
  STZ-induced increase in serum IL-1A: reduced or prevented
IL-6
  STZ-induced increase in serum IL-6: reduced or prevented
[7]; AKBA 15 mg/kg i.p. 10 days
  Blood glucose level after administration was discontinued after 10 days: no significant further increase
[7]
  STZ-induced increase of the blood glucose level: significant reduction
[8]
  Effect on Cyclooxygenase 1 (prostaglandin): Lowered
[9]
  Effect on 5-Lipoxygenase (leukotriene): Lowered
C3-Convertase
  Effect on C3-Convertase: Lowered
NFK B
  Effect on NFK B: Lowered
IL-1β
  Effect on IL-1β: Lowered

## C[C@H]1[C@H](C)CC[C@]2(C)CC[C@]3(C)C(=CC(=O)[C@@H]4[C@@]5(C)CC[C@@H](O)[C@](C)(C(=O)O)[C@@H]5CC[C@]43C)[C@H]12 [KBA, 11-keto-β-boswellic acid]
Islets of Langerhans
  Signs of inflammation of the islets of Langerhans (H&E staining, T-lymphocytes by CD3): neither signs of inflammation
IL-2 [4]
  STZ-induced increase in serum IL-2: reduced or prevented
IFN-γ [5]
  STZ-induced increase in serum IFN-γ: reduced or prevented
TNF-α [6]
  STZ-induced increase in serum TNF-α: reduced or prevented
IL-1B
  STZ-induced increase in serum IL-1B: reduced or prevented
IL-1A
  STZ-induced increase in serum IL-1A: reduced or prevented
IL-6
  STZ-induced increase in serum IL-6: reduced or prevented
[7]
  STZ-induced increase of the blood glucose level: reduced
